Laboratory results from patent US20250084061A1, “SULFONYL FUNCTIONAL COMPOUND, METHODS AND USES THEREOF” (Hubei Biopesticide Engineering Research Centre, priority 2023, published 2025).
Read-outs that look alike come from different tables or passages of the source.

Legend:
[1] = tested on: Colletotrichum gloeobosporioids; experiment: Bactericidal (fungicidal) activity by microdilution; assay type: cell-based
Magnaporthe oryzae = assay type: cell-based
Fusarium culmorum = experiment: Bactericidal (fungicidal) activity by microdilution; assay type: cell-based
[2] = tested on: Corynespora leaf spot of tomato; experiment: as above; assay type: cell-based
Rhizoctonia solani = experiment: as above; assay type: cell-based
[3] = tested on: Verticillium dahliae.kieb.; experiment: as above; assay type: cell-based
Pythium aphanidermatum = experiment: as above; assay type: cell-based
Heliothis armigera = experiment: Insecticidal activity, artificial feed surface coating method; assay type: in vivo; details: Helicoverpa armigera, read-out: Insecticidal activity (mortality rate grade) Heliothis armigera
Procedure: (§1) The insecticidal activity of sulfonyl functional compounds in the above embodiments were tested for agricultural biological functions, and the targets of insecticidal activity were Heliothis armigera, Plutella xylostella and Aphiscraccivora.
(§2) Using Heliothis armigera and Plutella xylostella as target, the insecticidal activities of sulfonyl functional compounds were tested by conventional artificial feed surface coating method. 300 microliters of artificial feed and 20 microliters of test solution were added to each well of the 24-well cell culture plate. The test solution was used in different concentrations and repeated twice (Rep1 and Rep2). The concentrations of the test solution were 500 mg/L, 250 mg/L and 125 mg/L, respectively.
(§3) The insecticidal activity of sulfonyl functional compounds against Aphiscraccivora was tested by the method of dipping. Mother liquors were prepared by the sulfonyl functional compounds provided in the above embodiments dissolved in ethanol, respectively. 500 mg/L, 250 mg/L or 125 mg/L test solution could be prepared by diluting the different mother liquors with a liquor that contained 0.1 mL/L of emulgator (Tween-80). Every test solution was tested twice (Rep1 and Rep2). A blank control was set up, and the activity results were compared with the blank control. The mortality rate of 0˜30%, 30˜50%, 50-70%, 70˜90%, or 90˜100% could be orderly set as 0, 3, 5, 7, or 9.

Plutella xylostella = experiment: as above; assay type: in vivo; details: Plutella xylostella, read-out: Insecticidal activity (mortality rate grade) Plutella xylostella
Procedure: as §1, §2, §3

Botrytis cinerea = experiment: Bactericidal (fungicidal) activity by microdilution; assay type: cell-based
Aphiscraccivora = experiment: Insecticidal activity, dipping method; assay type: in vivo
Procedure: as §1, §3

Leptosphaeria biglobosa = experiment: Bactericidal (fungicidal) activity by microdilution; assay type: cell-based
[4] = tested on: Fusarium oxysporum f. sp. Niveum; experiment: as above; assay type: cell-based
Thanatephorus cucumeris = experiment: as above; assay type: cell-based
Alternaria kikuchiana = experiment: as above; assay type: cell-based
Septoria nodorum Berk. = experiment: as above; assay type: cell-based

Structure (SMILES): COC(=O)Nc1nc2ccccc2n1CCCS(=O)(=O)O [III-1]
- Fungicidal activity (antibacterial rate grade) Colletotrichum gloeobosporioids ([1]; 12.5 mg/L): 9 (The antibacterial rate of 90˜100% could be set as 9 if the target has totally no growth)
- Fungicidal activity (antibacterial rate grade) Colletotrichum gloeobosporioids ([1]; 25 mg/L): 9 (The antibacterial rate of 90˜100% could be set as 9 if the target has totally no growth)
- Fungicidal activity (antibacterial rate grade) Colletotrichum gloeobosporioids ([1]; 50 mg/L): 9 (The antibacterial rate of 90˜100% could be set as 9 if the target has totally no growth)
- Fungicidal activity (antibacterial rate grade) Colletotrichum gloeobosporioids ([1]; 100 mg/L): 9 (The antibacterial rate of 90˜100% could be set as 9 if the target has totally no growth)
- Fungicidal activity (antibacterial rate grade) Magnaporthe oryzae (Magnaporthe oryzae; 12.5 mg/L): 9 (The antibacterial rate of 90˜100% could be set as 9 if the target has totally no growth)
- Fungicidal activity (antibacterial rate grade) Magnaporthe oryzae (Magnaporthe oryzae; 25 mg/L): 9 (The antibacterial rate of 90˜100% could be set as 9 if the target has totally no growth)
- Fungicidal activity (antibacterial rate grade) Magnaporthe oryzae (Magnaporthe oryzae; 50 mg/L): 9 (The antibacterial rate of 90˜100% could be set as 9 if the target has totally no growth)
- Fungicidal activity (antibacterial rate grade) Magnaporthe oryzae (Magnaporthe oryzae; 100 mg/L): 9 (The antibacterial rate of 90˜100% could be set as 9 if the target has totally no growth)
- Fungicidal activity (antibacterial rate grade) Fusarium culmorum (Fusarium culmorum; 12.5 mg/L): 9 (The antibacterial rate of 90˜100% could be set as 9 if the target has totally no growth)
- Fungicidal activity (antibacterial rate grade) Fusarium culmorum (Fusarium culmorum; 25 mg/L): 9 (The antibacterial rate of 90˜100% could be set as 9 if the target has totally no growth)
- Fungicidal activity (antibacterial rate grade) Fusarium culmorum (Fusarium culmorum; 50 mg/L): 9 (The antibacterial rate of 90˜100% could be set as 9 if the target has totally no growth)
- Fungicidal activity (antibacterial rate grade) Fusarium culmorum (Fusarium culmorum; 100 mg/L): 9 (The antibacterial rate of 90˜100% could be set as 9 if the target has totally no growth)
- Fungicidal activity (antibacterial rate grade) Corynespora leaf spot of tomato ([2]; 12.5 mg/L): 3 (The antibacterial rate of 0˜30% could be set as 3 if the growth of the target is normal and consistent with that of the blank control)
- Fungicidal activity (antibacterial rate grade) Corynespora leaf spot of tomato ([2]; 25 mg/L): 3 (The antibacterial rate of 0˜30% could be set as 3 if the growth of the target is normal and consistent with that of the blank control)
- Fungicidal activity (antibacterial rate grade) Corynespora leaf spot of tomato ([2]; 50 mg/L): 7 (The antibacterial rate of 70˜90% could be set as 7 if the target has small amounts of growth)
- Fungicidal activity (antibacterial rate grade) Corynespora leaf spot of tomato ([2]; 100 mg/L): 7 (The antibacterial rate of 70˜90% could be set as 7 if the target has small amounts of growth)
- Fungicidal activity (antibacterial rate grade) Rhizoctonia solani (Rhizoctonia solani; 12.5 mg/L): 3 (The antibacterial rate of 0˜30% could be set as 3 if the growth of the target is normal and consistent with that of the blank control)
- Fungicidal activity (antibacterial rate grade) Rhizoctonia solani (Rhizoctonia solani; 25 mg/L): 3 (The antibacterial rate of 0˜30% could be set as 3 if the growth of the target is normal and consistent with that of the blank control)
- Fungicidal activity (antibacterial rate grade) Rhizoctonia solani (Rhizoctonia solani; 50 mg/L): 3 (The antibacterial rate of 0˜30% could be set as 3 if the growth of the target is normal and consistent with that of the blank control)
- Fungicidal activity (antibacterial rate grade) Rhizoctonia solani (Rhizoctonia solani; 100 mg/L): 3 (The antibacterial rate of 0˜30% could be set as 3 if the growth of the target is normal and consistent with that of the blank control)
- Fungicidal activity (antibacterial rate grade) Verticillium dahliae. kieb. ([3]; 12.5 mg/L): 9 (The antibacterial rate of 90˜100% could be set as 9 if the target has totally no growth)
- Fungicidal activity (antibacterial rate grade) Verticillium dahliae. kieb. ([3]; 25 mg/L): 9 (The antibacterial rate of 90˜100% could be set as 9 if the target has totally no growth)
- Fungicidal activity (antibacterial rate grade) Verticillium dahliae. kieb. ([3]; 50 mg/L): 9 (The antibacterial rate of 90˜100% could be set as 9 if the target has totally no growth)
- Fungicidal activity (antibacterial rate grade) Verticillium dahliae. kieb. ([3]; 100 mg/L): 9 (The antibacterial rate of 90˜100% could be set as 9 if the target has totally no growth)
- Fungicidal activity (antibacterial rate grade) Pythium aphanidematum (Pythium aphanidermatum; 12.5 mg/L): 3 (The antibacterial rate of 0˜30% could be set as 3 if the growth of the target is normal and consistent with that of the blank control)
- Fungicidal activity (antibacterial rate grade) Pythium aphanidematum (Pythium aphanidermatum; 25 mg/L): 3 (The antibacterial rate of 0˜30% could be set as 3 if the growth of the target is normal and consistent with that of the blank control)
- Fungicidal activity (antibacterial rate grade) Pythium aphanidematum (Pythium aphanidermatum; 50 mg/L): 3 (The antibacterial rate of 0˜30% could be set as 3 if the growth of the target is normal and consistent with that of the blank control)
- Fungicidal activity (antibacterial rate grade) Pythium aphanidematum (Pythium aphanidermatum; 100 mg/L): 3 (The antibacterial rate of 0˜30% could be set as 3 if the growth of the target is normal and consistent with that of the blank control)
- mortality at 125 µg/mL (Heliothis armigera; 125 mg/L test solution): 0 to 30%
- mortality at 250 µg/mL (Heliothis armigera; 250 mg/L test solution): 0 to 30%
- mortality at 500 µg/mL (Heliothis armigera; 500 mg/L test solution): 0 to 30%
- mortality at 125 µg/mL (Plutella xylostella; 125 mg/L test solution): 0 to 30%
- mortality at 250 µg/mL (Plutella xylostella; 250 mg/L test solution): 0 to 30%
- mortality at 500 µg/mL (Plutella xylostella; 500 mg/L test solution): 0 to 30%
- Fungicidal activity (antibacterial rate grade) Botrytis cinerea (Botrytis cinerea; 12.5 mg/L): 3 (The antibacterial rate of 0˜30% could be set as 3 if the growth of the target is normal and consistent with that of the blank control)
- Fungicidal activity (antibacterial rate grade) Botrytis cinerea (Botrytis cinerea; 25 mg/L): 3 (The antibacterial rate of 0˜30% could be set as 3 if the growth of the target is normal and consistent with that of the blank control)
- Fungicidal activity (antibacterial rate grade) Botrytis cinerea (Botrytis cinerea; 50 mg/L): 3 (The antibacterial rate of 0˜30% could be set as 3 if the growth of the target is normal and consistent with that of the blank control)
- Fungicidal activity (antibacterial rate grade) Botrytis cinerea (Botrytis cinerea; 100 mg/L): 3 (The antibacterial rate of 0˜30% could be set as 3 if the growth of the target is normal and consistent with that of the blank control)
- Insecticidal activity (mortality rate grade) Aphiscraccivora (Aphiscraccivora; 125 mg/L test solution): 0 (mortality rate of 0˜30%)
- Insecticidal activity (mortality rate grade) Aphiscraccivora (Aphiscraccivora; 250 mg/L test solution): 0 (mortality rate of 0˜30%)
- Insecticidal activity (mortality rate grade) Aphiscraccivora (Aphiscraccivora; 500 mg/L test solution): 0 (mortality rate of 0˜30%)
- Fungicidal activity (antibacterial rate grade) Leptosphaeria biglobosa (Leptosphaeria biglobosa; 12.5 mg/L): 9 (The antibacterial rate of 90˜100% could be set as 9 if the target has totally no growth)
- Fungicidal activity (antibacterial rate grade) Leptosphaeria biglobosa (Leptosphaeria biglobosa; 25 mg/L): 9 (The antibacterial rate of 90˜100% could be set as 9 if the target has totally no growth)
- Fungicidal activity (antibacterial rate grade) Leptosphaeria biglobosa (Leptosphaeria biglobosa; 50 mg/L): 9 (The antibacterial rate of 90˜100% could be set as 9 if the target has totally no growth)
- Fungicidal activity (antibacterial rate grade) Leptosphaeria biglobosa (Leptosphaeria biglobosa; 100 mg/L): 9 (The antibacterial rate of 90˜100% could be set as 9 if the target has totally no growth)
- Fungicidal activity (antibacterial rate grade) Fusarium oxysporum f. sp. Niveum ([4]; 12.5 mg/L): 9 (The antibacterial rate of 90˜100% could be set as 9 if the target has totally no growth)
- Fungicidal activity (antibacterial rate grade) Fusarium oxysporum f. sp. Niveum ([4]; 25 mg/L): 9 (The antibacterial rate of 90˜100% could be set as 9 if the target has totally no growth)
- Fungicidal activity (antibacterial rate grade) Fusarium oxysporum f. sp. Niveum ([4]; 50 mg/L): 9 (The antibacterial rate of 90˜100% could be set as 9 if the target has totally no growth)
- Fungicidal activity (antibacterial rate grade) Fusarium oxysporum f. sp. Niveum ([4]; 100 mg/L): 9 (The antibacterial rate of 90˜100% could be set as 9 if the target has totally no growth)
- Fungicidal activity (antibacterial rate grade) Thanatephorus cucumeris (Thanatephorus cucumeris; 12.5 mg/L): 9 (The antibacterial rate of 90˜100% could be set as 9 if the target has totally no growth)
- Fungicidal activity (antibacterial rate grade) Thanatephorus cucumeris (Thanatephorus cucumeris; 25 mg/L): 9 (The antibacterial rate of 90˜100% could be set as 9 if the target has totally no growth)
- Fungicidal activity (antibacterial rate grade) Thanatephorus cucumeris (Thanatephorus cucumeris; 50 mg/L): 9 (The antibacterial rate of 90˜100% could be set as 9 if the target has totally no growth)
- Fungicidal activity (antibacterial rate grade) Thanatephorus cucumeris (Thanatephorus cucumeris; 100 mg/L): 9 (The antibacterial rate of 90˜100% could be set as 9 if the target has totally no growth)
- Fungicidal activity (antibacterial rate grade) Alternaria kikuchiana (Alternaria kikuchiana; 12.5 mg/L): 3 (The antibacterial rate of 0˜30% could be set as 3 if the growth of the target is normal and consistent with that of the blank control)
- Fungicidal activity (antibacterial rate grade) Alternaria kikuchiana (Alternaria kikuchiana; 25 mg/L): 3 (The antibacterial rate of 0˜30% could be set as 3 if the growth of the target is normal and consistent with that of the blank control)
- Fungicidal activity (antibacterial rate grade) Alternaria kikuchiana (Alternaria kikuchiana; 50 mg/L): 3 (The antibacterial rate of 0˜30% could be set as 3 if the growth of the target is normal and consistent with that of the blank control)
- Fungicidal activity (antibacterial rate grade) Alternaria kikuchiana (Alternaria kikuchiana; 100 mg/L): 3 (The antibacterial rate of 0˜30% could be set as 3 if the growth of the target is normal and consistent with that of the blank control)
- Fungicidal activity (antibacterial rate grade) Septoria nodorum Berk. (Septoria nodorum Berk.; 12.5 mg/L): 9 (The antibacterial rate of 90˜100% could be set as 9 if the target has totally no growth)
- Fungicidal activity (antibacterial rate grade) Septoria nodorum Berk. (Septoria nodorum Berk.; 25 mg/L): 9 (The antibacterial rate of 90˜100% could be set as 9 if the target has totally no growth)
- Fungicidal activity (antibacterial rate grade) Septoria nodorum Berk. (Septoria nodorum Berk.; 50 mg/L): 9 (The antibacterial rate of 90˜100% could be set as 9 if the target has totally no growth)
- Fungicidal activity (antibacterial rate grade) Septoria nodorum Berk. (Septoria nodorum Berk.; 100 mg/L): 9 (The antibacterial rate of 90˜100% could be set as 9 if the target has totally no growth)
